This assay concerns the target T1, human KSP motor domain (KSP(367H)) (Homo sapiens, UniProt P52732).
T1 construct: were used to amplify the motor domain and the neck linker region; made in house; host or cells: E. coli BL21 (DE3), vector pRSETa
T1 sequence (P52732 18-359 limits assumed): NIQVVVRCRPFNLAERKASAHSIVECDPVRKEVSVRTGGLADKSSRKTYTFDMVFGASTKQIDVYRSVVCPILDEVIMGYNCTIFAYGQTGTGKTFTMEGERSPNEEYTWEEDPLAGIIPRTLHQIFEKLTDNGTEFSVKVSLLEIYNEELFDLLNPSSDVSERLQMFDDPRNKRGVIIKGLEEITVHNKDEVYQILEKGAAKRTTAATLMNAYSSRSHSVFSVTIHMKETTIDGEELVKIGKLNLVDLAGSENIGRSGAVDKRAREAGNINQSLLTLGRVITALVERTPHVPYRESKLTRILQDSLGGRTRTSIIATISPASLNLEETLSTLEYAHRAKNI
Kind of assay: Kinesin ATPase In Vitro Assay. Type of assay: biochemical. The following applies: enantiomers of 1-5 resolved on Chiralpak AD; assay not stated. The source says: I. Kinesin ATPase In Vitro Assay
Cloning and Expression of Human Poly-Histidine Tagged KSP Motor Domain (KSP(367H))
Plasmids for the expression of the human KSP motor domain construct were cloned by PCR using a pBluescript full length human KSP construct (Blangy et al., Cell, vol. 83, pp 1159-1169, 1995) as a template. The N-terminal primer 5′-[…] (SEQ.ID.NO.: 1) and the C-terminal primer 5′-[…] […] (SEQ.ID.NO.: 2) were used to amplify the motor domain and the neck linker region. The PCR products were digested with AseI and XhoI, ligated into the NdeI/XhoI digestion product of pRSETa (Invitrogen) and transformed into E. coli BL21 (DE3).
Cells were grown at 37° C. to an OD600 of 0.5. […]
The kinesin motor domain is incubated with microtubules, 1 mM ATP (1:1 MgCl2: Na-ATP), and compound at 23° C. in buffer containing 80 mM K-HEPES (pH 7.0), 1 mM EGTA, 1 mM DTT, 1 mM MgCl2, and 50 mM KCl. […] Free phosphate from the ATP hydrolysis reaction is measured via a quinaldine red/ammonium molybdate assay by adding a […] of quench C (e.g., to a mixture of 40 μl reaction volume+40 μl stop buffer is then added 120 μl quench C). […] Quench C is a 2:1 ratio of quench A:quench B The reaction is incubated for 5-10 minutes at 23° C., and the absorbance of the phospho-molybdate complex is measured at 540 nm.

On to `CC(=O)N1N=C(c2cc(F)ccc2F)C[C@@]1(CCCO)c1ccccc1` (single isomer, unassigned; isomer 3) [(S) isomer], for which the “activity of resolved enantiomer (active / inactive)” value was “active”.

Values taken from patent US7718687B2, “Prodrugs of mitotic kinesin inhibitors” (Merck Sharp & Dohme Corp.,, priority 2004, dated 2010).
